Reference: patent US10526580B2, “Differentiated cell population of endothelial cells derived from human pluripotent stem cells, composition, system, kit and uses thereof” (BIOCANT-ASSOCIAÇÃO DE TRANSFERÊNCIA DE TECNOLOGIA, priority 2012, dated 2020)

Columns and labels:
[1] = tested on: hESC-derived ECs versus HUAECs; assay: High-throughput screening of LOPAC library, PrestoBlue cell viability, hESC-derived ECs versus HUAECs; type: cell-based, human; details: LOPAC screen, 4.5 μM, 4 days, PrestoBlue assay
Description: (§1) High-throughput screening (HTS). HUAECS (Lonza) and hESC-derived ECs were cultured in EGM-2 medium while human anterior cruciate ligament cells (ACL cells) were cultured in Dulbecco's modified Eagle's medium (DMEM; PAA) supplemented with 10% FBS, 0.2 mM ascorbic acid 2-phosphate magnesium salt (Sigma Aldrich), […] streptomycin and 100 U/mL penicillin (Life Technologies). ACL cells were isolated from patients that have signed an informed consent form, in compliance with the Dutch legislation. The ethical committee of Medisch Spectrum Twente Hospital approved the collection.
(§2) The LOPAC library (Sigma-Aldrich) was used to screen embryonic endothelial-specific cytotoxic compounds. The compounds were solubilized in DMSO. The final compound concentration used in the screen was 4.5 μM in a final volume of 200 μL per well (96-well plate). HUAECs, hESC-derived EC and ACL cells were seeded at 16,000 cells/well (HUAECs and hESC-derived ECs) and 5,000 cells/well (ACL cells) and allowed to reach near confluence (approximately two days). After two days, medium was exchanged and test compounds and controls were added to the 96-well plates (all wells contained 0.25% (v/v) DMSO). After 4 days of incubation, cell viability was assessed using a PrestoBlue (Invitrogen) assay. This assay is based on a resazurin-based solution that indicates the reducing power of living cells and therefore measures indirectly their number. For each measurement, cell medium was removed and the PrestoBlue solution (10%) was added for 3 h at 37° C. upon which the absorbance was measured at 560-590 nm.
(§3) Disruption of vascular development has been directly correlated with prenatal loss, malformations and neurodevelopmental problems^41-44. […] The library was screened at a single dosage of 4.5 μM in a volume of 200 μL per well of EGM-2 medium, containing 0.25% DMSO (v/v). […] Six compounds (danazol, chlorpromazine hydrochloride, ellipticine, 3′,4′-dichlorobenzamil, fluphenazine dihydrochloride and 7-cyclopentyl-5-(4-phenoxy)phenyl-7H-pyrrolo[2,3-d]pyrimidin-4-ylamine) affected cell viability in both cells by a difference of 20% (FIG. 4B). The six compounds belong to different classes: cell cycle, ion pumps, dopamine pathway, phosphorylation and hormone signaling. The compounds selected from the primary screen were then tested against hESC-derived ECs and HUAECs at eight different concentrations to obtain a dose-response curve (FIG. 4C and FIG. 14).

[2] = tested on: hESC-derived ECs; assay: 7-Cyclo in PDMS microfluidic system, static or flow (morphology, qRT-PCR, ELISA); type: cell-based, human
Description: For the 7-cyclo studies the flow experiments were carried out in a microfluidic system developed by us. The microfluidic device was obtained using a cylindrical mold of 20 Gauge. Polydimethylsiloxane (PDMS) (Sylgard 184 Silicone elastomere base) was mixed at a 10:1 ratio (w/w) with curing agent (Sylgard 184 Silicon Elastomer Curing Agent) and the solution was poured onto a mold (20 gauge needle laid on a plastic dish) and cured at 80° C. for about 3 h. The microchannel was cut to 0.5 cm length (900 μm inner diameter) and treated with Plasma Clean (Electronic Diener Femto Plasma Surface Technology version 5) for 2 min with argon gas (2 mBar) before immersing it in a solution of 0.1% gelatin. HESC-derived ECs (20×10^6 cells/mL) or HUAECs were seeded on PDMS microchannels (3.18 μL cell suspension per channel) devices and grown until confluence. Using a programmed IBIDI pump with positive pressure, the cell monolayer was perfused with EGM-2 medium for 7 days; shear stress of 20 dyne/cm2 (. After 7 days the flow was stopped, the cells imaged, and then stained or collected for posterior gene analysis. Medium was collected for ELISA assays. In some experiments, cells were cultured in medium supplemented with 1 μM 7-cyclo (Sigma) for an additional time of 24 h, under shear stress. Static controls were carried out in the microfluidic system but without flow.
(§4) Evaluation of the levels of vascular injury by specific markers. ELISA kits analyzed supernatants collected from the shear stress experiments for vWF and vWFpp (Gen-Probe GTI Diagnostic) and ADMA (Enzo Life Sciences), according to manufacturer's recommendations.
To evaluate the effects of 7-Cyclo in flow conditions, hESC-derived ECs were cultured in a poly(dimethylsiloxane) (PDMS) microfluidic system with cylindrical channels for 7 days at 20 dyne/cm2 (FIG. 5A). ECs were able to form a confluent monolayer in the entire inner surface of the channel after 48 h. At day 7, cells were exposed to EGM-2 medium supplemented with 1 μM of 7-Cyclo for 24 h, and finally analyzed at morphological, genetic and secretion levels. […] Importantly, hESC-derived ECs cultured under flow conditions in the presence of 7-Cyclo secrete higher levels of ADMA (2.5 fold) and vWFpp:vWF (1.6 fold) than without the drug, and significant higher levels of ADMA than HUAECs.

[3] = tested on: HUAECs; assay: 7-Cyclo in PDMS microfluidic system, static or flow (qRT-PCR, ELISA); type: cell-based, human; details: flow 20 dyne/cm2, 1 μM for 24 h
Description: For the 7-cyclo studies the flow experiments were carried out in a microfluidic system developed by us. The microfluidic device was obtained using a cylindrical mold of 20 Gauge. Polydimethylsiloxane (PDMS) (Sylgard 184 Silicone elastomere base) was mixed at a 10:1 ratio (w/w) with curing agent (Sylgard 184 Silicon Elastomer Curing Agent) and the solution was poured onto a mold (20 gauge needle laid on a plastic dish) and cured at 80° C. for about 3 h. The microchannel was cut to 0.5 cm length (900 μm inner diameter) and treated with Plasma Clean (Electronic Diener Femto Plasma Surface Technology version 5) for 2 min with argon gas (2 mBar) before immersing it in a solution of 0.1% gelatin. […]
as §4
To evaluate the effects of 7-Cyclo in flow conditions, hESC-derived ECs were cultured in a poly(dimethylsiloxane) (PDMS) microfluidic system with cylindrical channels for 7 days at 20 dyne/cm2 (FIG. 5A). […] At day 7, cells were exposed to EGM-2 medium supplemented with 1 μM of 7-Cyclo for 24 h, and finally analyzed at morphological, genetic and secretion levels. […]

[4] = tested on: HUVECs and lymphatic EC tube formation; details: 1 μM, in vitro; cited from earlier work
[5] = tested on: mouse aortic endothelial cells (mAEC); assay: Gene expression in mouse aortic endothelial cells after 7-Cyclo; type: cell-based
Description: To further validate the effects of 7-Cyclo at the embryonic vasculature, mouse embryonic ECs were incubated at day 12.5 (mAEC E12.5) and postnatal day 1 (p1) with 7-Cyclo (1 μM) for 24 h. […] In contrast, 7-Cyclo has no effect in p1 ECs. The degree of action of 7-Cyclo in mAEC E12.5 is similar to the one identified in hESC-derived ECs (FIG. 5C).
Total RNA from experimental groups was isolated using a protocol with TRIzol (Invitrogen) and RNeasy Minikit (Qiagen, Valencia). cDNA was prepared from 1 μg total RNA using Taqman Reverse transcription reagents (Applied Biosystems, CA). Quantitative PCR (qPCR) was performed using Power SYBR Green PCR Master Mix and the detection using an ABI PRISM 7500 Fast System (Applied Biosystems). Quantification of target genes was performed relative to the reference GAPDH gene: relative expression=2^[−(Ctsample^−CtGADPH^)]. The mean minimal cycle threshold values (Ct) were calculated from 4 reactions. In some cases, gene expression in each experimental group was normalized to the relative gene expression found in HUVECs, HUAECs or undifferentiated hESCs. Primer sequences are published in Table 7 of expanded materials and methods.

[6] = tested on: hESC-derived ECs versus ACL cells; assay: High-throughput screening of LOPAC library, PrestoBlue cell viability, hESC-derived ECs versus ACL cells; type: cell-based, human; details: LOPAC screen, 4.5 μM, 4 days of incubation, PrestoBlue assay
Description: as §1, §2, §3

[7] = tested on: Xenopus embryos; details: 20 μM; cited from earlier work
[8] = flow 20 dyne/cm2, 1 μM for 24 h, versus static conditions
[9] = flow conditions, 1 μM for 24 h, ELISA

cell morphology ([2]; flow 20 dyne/cm2, 1 μM for 24 h): significant alterations
expression of DDAH1 and DDAH2 [2, 8]: statistically lower levels
expression of inflammatory genes ICAM-1, E-selectin, HO-1 and eNOS [2, 8]: statistically higher levels
secreted ADMA versus without the drug [2, 9]: 2.5 fold
secreted vWFpp:vWF versus without the drug [2, 9]: 1.6 fold
down-regulation of DDAH-1 and DDAH-2 [3]: No down-regulation
effect on gene expression ([5]; postnatal day 1 (p1) ECs, 1 μM for 24 h): no effect
SMILES: Nc1ncnc2c1c(-c1ccc(Oc3ccccc3)cc1)cn2C1CCCC1 [7-Cyclo, 7-cyclopentyl-5-(4-phenoxy)phenyl-7H-pyrrolo[2,3-d]pyrimidin-4-ylamine]
difference in cell viability between hESC-derived ECs and HUAECs [1]: 20%
expression of inflammatory genes [3]: only ICAM-1 and eNOS genes were up-regulated
tube formation [4]: inhibits
inflammation, oxidative stress sensing, vascular modulation and vascular injury sensing genes ([5]; mAEC at E12.5, 1 μM for 24 h, versus cells without treatment): statistically up-regulated
Differences (%) in cell viability (hESC-Derived ECs versus ACL cells) [6]: 65.4%
effect on vasculature of Xenopus embryos [7]: interfere with angiogenic sprouting and disrupt blood vessel formation
